Results as given in US4136186A, “Thieno[3,2-c]pyridine derivatives” (Parcor, priority 1976, dated 1979).
Like-named read-outs stand apart in the source and are kept apart here.

Assays:
[1] = tested on: carrageenin-induced edema; experiment: Localised carrageenin-induced edema method; assay type: in vivo; conditions: Rattus norvegicus, rats, oral 100 mg/kg at -1, 0, 1 and 2.5 hours
Procedure: (a) Localised carrageenin-induced edema method: A 1% carrageenin solution (0.1 ml) is injected in the metatarsal flexor muscles of the right hind limb of rats at time 0. The animals of the treated group are additionally administered orally 100 mg/kg of the test derivative, respectively one hour prior to and then simultaneously with the phlogogenic agent, and then one hour and 2.5 hours thereafter. The percent antiinflammatory activity, as a function of time, is determined with respect to the control group by measurements effected with a ROCH micrometer at times 0, one hour, two hours, three hours and five hours after carrageenin administration.

[2] = tested on: A.D.P.-induced blood-platelet aggregation; experiment: A.D.P.-induced blood-platelet aggregation (plasma of orally treated rats); assay type: in vivo, rats of Wistar strain; conditions: Rattus norvegicus, oral 100 mg/kg, 3 hours after treatment, 10 μM A.D.P., read-out: Percent inhibition of blood-platelet aggregation, A.D.P.
Procedure: (§1) A blood sample is taken from the jugular vein of rats of Wistar strain. From this citrated blood, and after centrifugation, is reconstituted a plasma containing 600,000 ± 20,000 platelets per mm^3 which will be used in all aggregation determinations. (a) Determination of A.D.P.-induced blood-platelet aggregation 0.4 ml plasma is placed in a siliconized tube provided with a magnetic bar, which is also siliconized. The tube is introduced into an aggregometer connected with an optical density variation recorder. When light transmission has reached a stable value, 0.5 ml of a solution containing 10 μM A.D.P. (adenosine-diphosphate) are introduced in the tube. Blood-platelet aggregation then induces an increase of light transmission followed by a decrease subsequent to the deaggregation phase. The thus determined maximum variation of optical density characterizes the intensity of the aggregation. Different groups of 20 rats are used, each group being administered orally a test derivative, at a dosage of 100 mg/kg. The results obtained in the course of tests a) and b) are tabulated in following Table I which indicates the percent inhibition of blood-plateletaggregation obtained, with respect to the control, 3 hours after treatment.

[3] = Potentiation of hypnotics (infrahypnotic sodium pentobarbital); assay type: in vivo; conditions: mice, oral 50 mg/kg, thirty minutes prior to i.p. infrahypnotic sodium pentobarbital
Procedure: In addition, the compounds of the formula (I) potentiate very markedly the effect of hypnotics. Indeed, on oral administration to different groups of mice, at a dosage of 50 mg/kg, thirty minutes prior to intraperitoneal injection of an infrahypnotic dosage of sodium pentobarbital, they produce, with respect to the untreated reference animals, a marked potentiation of the barbiturate.

[4] = tested on: collagen-induced blood-platelet aggregation; experiment: Collagen-induced blood-platelet aggregation (plasma of orally treated rats); assay type: in vivo, rats of Wistar strain; conditions: Rattus norvegicus, oral 100 mg/kg, 3 hours after treatment, collagen (bovine tendon extract), read-out: Percent inhibition of blood-platelet aggregation, Collagen
Procedure: as §1, with “determinations.” for “determinations. (a) Determination of A.D.P.-induced blood-platelet aggregation”, “aggregation. (b) Determination of collagen-induced blood-platelet aggregation The A.D.P. solution is substituted with a collagen solution (bovine tendon extract).” for “aggregation.”

[5] = tested on: ovalbumin-induced systemic edema; experiment: Ovalbumin-induced systemic edema method; assay type: in vivo; conditions: Rattus norvegicus, rats, oral 100 mg/kg one hour prior to and simultaneously with ovalbumin
Procedure: (b) Ovalbumin-induced systemic edema method Rats are administered a simultaneous intraperitoneal injection of 1 ml ovalbumin and 0.5 ml of a 1% aqueous Evans Blue solution. The animals of the treated group are additionally administered orally 100 mg/kg of the test derivative, one hour prior to and simultaneously with said ovalbumin administration. The intensity of the phenomenon thus induced is scored according to a scale from 1 to 5, according to the progress of the inflammatory syndrome. Thus are determined with respect to the control group the mean intensity and the percent decrease of the edema reaction, as a function of time. The percent anti-inflammatory activity obtained 2 hours and 3 hours, respectively, after ovalbumin injection, is tabulated in following Table III: […]

[6] = 1 hour after carrageenin, read-out: Percent anti-inflammatory activity after 1 hour
[7] = 2 hours after carrageenin, read-out: Percent anti-inflammatory activity after 2 hours
[8] = 3 hours after carrageenin, read-out: Percent anti-inflammatory activity after 3 hours
[9] = 5 hours after carrageenin, read-out: Percent anti-inflammatory activity after 5 hours
[10] = 2 hours after ovalbumin injection, read-out: Percent anti-inflammatory activity after 2 hours
[11] = 3 hours after ovalbumin injection, read-out: Percent anti-inflammatory activity after 3 hours

SMILES: CCOC(=O)c1sc2c(c1O)CN(Cc1ccccc1Cl)CC2 [Derivative n°1, 5-o-Chlorobenzyl-2-ethoxycarbonyl-3-hydroxy-4,5,6,7-tetrahydro-thieno[3,2-c]pyridine]
- inhibition in vivo at 100 mg/kg [1, 6]: 46%
- inhibition in vivo at 100 mg/kg [1, 7]: 53%
- inhibition in vivo at 100 mg/kg [1, 8]: 56%
- inhibition in vivo at 100 mg/kg [1, 9]: 60%
- inhibition in vivo at 100 mg/kg [2]: 61.2%
- percent animals put to sleep [3]: 60%
- inhibition in vivo at 100 mg/kg [4]: 90.2%
- inhibition in vivo at 100 mg/kg [5, 10]: 54%
- inhibition in vivo at 100 mg/kg [5, 11]: 63%

SMILES: CCOC(=O)c1sc2c(c1O)CN(C(=O)c1ccccc1)CC2 [Derivative n°2, 5-benzoyl-2-ethoxycarbonyl-3-hydroxy-4,5,6,7-tetrahydro-thieno[3,2-c]pyridine]
- inhibition in vivo at 100 mg/kg [1, 6]: 42%
- inhibition in vivo at 100 mg/kg [1, 7]: 48%
- inhibition in vivo at 100 mg/kg [1, 8]: 50%
- inhibition in vivo at 100 mg/kg [1, 9]: 53%
- inhibition in vivo at 100 mg/kg [2]: 62.8%
- percent animals put to sleep [3]: 60%
- inhibition in vivo at 100 mg/kg [4]: 94.6%
- inhibition in vivo at 100 mg/kg [5, 10]: 49%
- inhibition in vivo at 100 mg/kg [5, 11]: 58%

SMILES: CCOC(=O)c1sc2c(c1OC(C)=O)CN(Cc1ccccc1Cl)CC2 [Derivative n°3, 3-acetoxy-5-o-chlorobenzyl-2-ethoxycarbonyl-4,5,6,7-tetrahydro-thieno[3,2-c]pyridine]
- inhibition in vivo at 100 mg/kg [1, 6]: 38%
- inhibition in vivo at 100 mg/kg [1, 7]: 45%
- inhibition in vivo at 100 mg/kg [1, 8]: 49%
- inhibition in vivo at 100 mg/kg [1, 9]: 51%
- inhibition in vivo at 100 mg/kg [2]: 62.4%
- percent animals put to sleep [3]: 80%
- inhibition in vivo at 100 mg/kg [4]: 92.9%
- inhibition in vivo at 100 mg/kg [5, 10]: 51%
- inhibition in vivo at 100 mg/kg [5, 11]: 59%

SMILES: CCOC(=O)c1sc2c(c1O)CN(Cc1ccccc1)CC2.Cl [Derivative n°4, 5-Benzyl-2-ethoxycarbonyl-3-hydroxy-4,5,6,7-tetrahydro-thieno[3,2-c]pyridine hydrochloride]
- inhibition in vivo at 100 mg/kg [1, 6]: 39%
- inhibition in vivo at 100 mg/kg [1, 7]: 45%
- inhibition in vivo at 100 mg/kg [1, 8]: 50%
- inhibition in vivo at 100 mg/kg [1, 9]: 53%
- inhibition in vivo at 100 mg/kg [2]: 64.8%
- percent animals put to sleep [3]: 70%
- inhibition in vivo at 100 mg/kg [4]: 95.2%
- inhibition in vivo at 100 mg/kg [5, 10]: 48%
- inhibition in vivo at 100 mg/kg [5, 11]: 56%

SMILES: COC(=O)c1sc2c(c1O)CN(Cc1ccccc1Cl)CC2 [Derivative n°5, 5-o-Chlorobenzyl-3-hydroxy-2-methoxycarbonyl-4,5,6,7-tetrahydro-thieno[3,2-c]pyridine]
- inhibition in vivo at 100 mg/kg [1, 6]: 41%
- inhibition in vivo at 100 mg/kg [1, 7]: 47%
- inhibition in vivo at 100 mg/kg [1, 8]: 51%
- inhibition in vivo at 100 mg/kg [1, 9]: 55%
- inhibition in vivo at 100 mg/kg [2]: 64.4%
- percent animals put to sleep [3]: 70%
- inhibition in vivo at 100 mg/kg [4]: 96.7%
- inhibition in vivo at 100 mg/kg [5, 10]: 47%
- inhibition in vivo at 100 mg/kg [5, 11]: 55%

SMILES: CCOC(=O)c1sc2c(c1O)CN(C)CC2 [Derivative n°6, 2-Ethoxycarbonyl-3-hydroxy-5-methyl-4,5,6,7-tetrahydro-thieno[3,2-c]pyridine]
- inhibition in vivo at 100 mg/kg [1, 6]: 34%
- inhibition in vivo at 100 mg/kg [1, 7]: 40%
- inhibition in vivo at 100 mg/kg [1, 8]: 43%
- inhibition in vivo at 100 mg/kg [1, 9]: 48%
- inhibition in vivo at 100 mg/kg [2]: 63.8%
- percent animals put to sleep [3]: 90%
- inhibition in vivo at 100 mg/kg [4]: 93.2%
- inhibition in vivo at 100 mg/kg [5, 10]: 52%
- inhibition in vivo at 100 mg/kg [5, 11]: 59%

SMILES: CCOC(=O)c1sc2c(c1O)CNCC2 [Derivative n°7, 2-Ethoxycarbonyl-3-hydroxy-4,5,6,7-tetrahydro-thieno[3,2-c]pyridine]
- inhibition in vivo at 100 mg/kg [1, 6]: 36%
- inhibition in vivo at 100 mg/kg [1, 7]: 41%
- inhibition in vivo at 100 mg/kg [1, 8]: 45%
- inhibition in vivo at 100 mg/kg [1, 9]: 52%
- inhibition in vivo at 100 mg/kg [2]: 62.5%
- percent animals put to sleep [3]: 90%
- inhibition in vivo at 100 mg/kg [4]: 95.6%
- inhibition in vivo at 100 mg/kg [5, 10]: 50%
- inhibition in vivo at 100 mg/kg [5, 11]: 60%

SMILES: COC(=O)c1sc2c(c1O)CNCC2 [Derivative n°8, 3-Hydroxy-2-methoxycarbonyl-4,5,6,7-tetrahydro-thieno[3,2-c]pyridine]
- inhibition in vivo at 100 mg/kg [1, 6]: 43%
- inhibition in vivo at 100 mg/kg [1, 7]: 49%
- inhibition in vivo at 100 mg/kg [1, 8]: 53%
- inhibition in vivo at 100 mg/kg [1, 9]: 55%
- inhibition in vivo at 100 mg/kg [2]: 62.1%
- percent animals put to sleep [3]: 80%
- inhibition in vivo at 100 mg/kg [4]: 94.3%
- inhibition in vivo at 100 mg/kg [5, 10]: 48%
- inhibition in vivo at 100 mg/kg [5, 11]: 57%

SMILES: CCOC(=O)c1sc2c(c1O)CN(CCc1ccccc1)CC2 [Derivative n°9, 2-Ethoxycarbonyl-3-hydroxy-5-phenethyl-4,5,6,7-tetrahydro-thieno[3,2-c]pyridine]
- inhibition in vivo at 100 mg/kg [1, 6]: 42%
- inhibition in vivo at 100 mg/kg [1, 7]: 46%
- inhibition in vivo at 100 mg/kg [1, 8]: 50%
- inhibition in vivo at 100 mg/kg [1, 9]: 54%
- inhibition in vivo at 100 mg/kg [2]: 64.5%
- percent animals put to sleep [3]: 100%
- inhibition in vivo at 100 mg/kg [4]: 93.8%
- inhibition in vivo at 100 mg/kg [5, 10]: 53%
- inhibition in vivo at 100 mg/kg [5, 11]: 62%

SMILES: CCCCOC(=O)c1sc2c(c1O)CN(Cc1ccccc1Cl)CC2 [Derivative n°10, 2-Butoxycarbonyl-5-o-chlorobenzyl-3-hydroxy-4,5,6,7-tetrahydro-thieno[3,2-c]pyridine]
- inhibition in vivo at 100 mg/kg [1, 6]: 37%
- inhibition in vivo at 100 mg/kg [1, 7]: 42%
- inhibition in vivo at 100 mg/kg [1, 8]: 48%
- inhibition in vivo at 100 mg/kg [1, 9]: 51%
- inhibition in vivo at 100 mg/kg [2]: 63.6%
- percent animals put to sleep [3]: 90%
- inhibition in vivo at 100 mg/kg [4]: 90.2%
- inhibition in vivo at 100 mg/kg [5, 10]: 50%
- inhibition in vivo at 100 mg/kg [5, 11]: 59%

SMILES: CCOC(=O)c1sc2c(c1O)CN(C(=O)OCC)CC2 [Derivative n°11, 2,5-Diethoxycarbonyl-3-hydroxy-4,5,6,7-tetrahydro-thieno[3,2-c]pyridine]
- inhibition in vivo at 100 mg/kg [1, 6]: 40%
- inhibition in vivo at 100 mg/kg [1, 7]: 46%
- inhibition in vivo at 100 mg/kg [1, 8]: 49%
- inhibition in vivo at 100 mg/kg [1, 9]: 53%
- inhibition in vivo at 100 mg/kg [2]: 62.1%
- percent animals put to sleep [3]: 60%
- inhibition in vivo at 100 mg/kg [4]: 91%
- inhibition in vivo at 100 mg/kg [5, 10]: 51%
- inhibition in vivo at 100 mg/kg [5, 11]: 61%
